Data set [1] has as its system HOb cells. The experiment in a line: Calcium assay (pro-calcifying activity, mineralization) on human primary osteoblastic cells. The data set is classed as cell-based. The note with it: for percentage of mineralization of the HOb cells / increase in calcification relative to the mineralizing condition: 14 days; for percentage of mineralization of the HOb cells: mineralizing conditions; for increase in calcification relative to the mineralizing condition: HOb. The method, then:
For all experiments, a mouse pre-osteoblastic cell line (MC3T3-E1, ATCC) and human primary osteoblastic cells (HOb, Promocell) were used. The mouse pre-osteoblastic cells were cultured in 75 cm^2 flasks, containing 15 mL of α-MEM medium (M4526, SIGMA) and 10% fetal calf serum (FCS), containing 1% Penicillin/Streptomycin antibiotics and 1% glutamine. Similarly, human HOb cells were cultured in 75 cm 2 flasks containing 15 mL of proliferation medium (Human Osteoblast Proliferation Medium, PromoCell). The cells are maintained in the oven at 37° C., with 5% CO2 and 90% humidity. The medium was changed every three days.
MC3T3-E1 cells were seeded in 6-well plates at 63,700 cells/well to be treated in order to extract RNA or for alkaline phosphatase enzymatic activity assay and in 48-well plates for the calcium assay at 5250 cells/well. The HOb cells were seeded at 182,000 cells/well in 6-well plates for the extraction of RNA or for the alkaline phosphatase enzymatic activity assay; at 15,000 cells/well in 48-well plates for the calcium assay; at 10,000 cells/well in 48-well plates for the MTT test or the WST-1 test and at 100,000 cells/well in 6-well plates for the protein extraction or for the fluorescence.
In order to induce the mineralization, the MC3T3-E1 cells were treated with α-MEM medium containing 5% FCS to which 10 mM of β-glycerophosphate and 50 μg/mL of ascorbic acid are added. The HOb cells were treated with the “Osteoblast mineralization medium” (Promocell). […] After filtration, the cells were treated with the respective media (500 μL per well of the 48-well plate and 2 mL per well of the 6-well plate).
The calcification has also been studied on human osteoblastic cells (Hob, PromoCell, Heidelberg, Germany). They are isolated from femoral trabecular bone tissues.

Data set [2] deals with smooth muscle cells. The experiment in a line: Calcium production by smooth muscle cells. The note with it: non-calcifying control condition; DP2 5-50 μM (FIG. 5). The data set is classed as cell-based. An excerpt: FIG. […]
This therefore reinforces the hypothesis that DP2 will not induce any calcification on cells other than the osteoblastic cells.

The test system of data set [3] is HOb cells. The experiment in a line: Cytotoxicity, MTT test. The data set is classed as cell-based, human. The conditions noted are these: 30 μM, culture or mineralizing medium, D2, D4, D7, D14. Here is the method: In order to study the toxicity of DP2, cell viability was determined using the MTT test (3-(4,5-dimethyl-2-thiazolyl)-2,5-diphenyl-2H-tetrazolium bromide). The HOb cells were seeded in 48-well plates (10,000 cells per well), two days later the cells were treated with DP2 30 μM and the MTT test was carried out on D2, D4, 7 and D14 post-treatment.
After washing the cells with DMEM (Dulbecco's Modified Eagle Medium) without phenol red, 250 μl of the diluted MTT solution were added to each well and the plate is incubated at 37° C. with 5% CO2 for 1 hour. The amount of MTT reduced in formazan is proportional to living cells. The purple formazan crystals were solubilized in 220 μl of DMSO and after stirring to homogenize the coloration, the absorbance was measured at 560 nm (Envision, PerkinElmer). The cytotoxicity was assessed by comparing the cell viability between the control group and the experimental group.
Before determining whether our molecule alters the survival of osteoblastic cells, its cytotoxicity was tested on the HOb cells by the MTT and WST-1 tests. The cells were treated with DP2 at 30 μM with the culture medium (Ctrl) or the mineralizing medium (Min) for 2, 4, 7 and 14 days (D).
In general terms: Tetrazolium assays rely on reduction of a dye to a coloured formazan, in cell work by metabolically active cells.

“And” between values parts separate entries of the source, which are not always exact repeats. Identical values can stand only once.

`CCCO[C@H]1OC(CO)[C@@H](O[C@@H]2OC(CO)[C@@H](O)C(O)C2NC(C)=O)C(O)C1OC(C)=O` (stereo partly drawn) [DP2, n-propyl, 2-O-acetyl-α-D-Glucopyranoside, 4-O-(2-acetamido-2-deoxy-β-D-glucopyranosyl)]: the “percentage of mineralization of the HOb cells” value in data set [1] (30 μM, listed as DP2R0) is 181.573±9.155%; in data set [1] (30 μM, listed as DP2R2), 137.012±52.452% and 204.472% and 159.03±18.719%. Besides, the “increase in calcification relative to the mineralizing condition” value in data set [1] (15 μM) was 26±10%; in data set [1] (30 μM), 40±15%; in data set [1] (50 μM), 8±17%. For the same compound, the “mineralization of the HOb cells relative to the mineralizing medium alone” value in data set [1] (lower concentrations 5, 7.5 and 10 μM (FIG. 4)) is “decrease in mineralization”. In data set [2], the “pro-calcifying action on the smooth muscle cells” value is listed as “no pro-calcifying action”. Also, the “cell viability, MTT test” value in data set [3] was “no significant difference”.
